According to ChEMBL document CHEMBL3638998, “17Beta-hydroxysteroid dehydrogenase type 1 inhibitors for the treatment of hormone-related diseases” (2013):

Biological target: CYP2C9 (Homo sapiens, UniProt P11712)
Assay: Inhibition Assay: Inhibition assay using P450 CYP enzymes.

Chain of CYP2C9 (P11712 whole entry): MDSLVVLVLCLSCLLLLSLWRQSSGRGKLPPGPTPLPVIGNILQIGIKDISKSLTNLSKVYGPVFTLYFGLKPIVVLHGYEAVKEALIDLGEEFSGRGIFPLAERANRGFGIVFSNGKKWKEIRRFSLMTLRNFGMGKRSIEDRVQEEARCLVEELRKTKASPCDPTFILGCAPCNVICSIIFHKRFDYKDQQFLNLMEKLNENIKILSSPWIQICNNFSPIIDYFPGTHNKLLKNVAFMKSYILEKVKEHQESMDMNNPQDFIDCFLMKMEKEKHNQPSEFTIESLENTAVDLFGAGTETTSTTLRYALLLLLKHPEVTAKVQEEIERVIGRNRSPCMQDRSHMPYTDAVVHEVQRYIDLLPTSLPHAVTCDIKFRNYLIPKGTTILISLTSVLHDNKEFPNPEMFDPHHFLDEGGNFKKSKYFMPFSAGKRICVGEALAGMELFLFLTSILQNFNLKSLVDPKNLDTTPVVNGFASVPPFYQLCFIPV

## CNC(=O)/C=C/c1cc(OC)cc(-c2ccc3cc(OC)ccc3c2)c1
  IC50: 30 nM
